These results are taken from patent publication US20260001871A1, “TRIAZOLE DERIVATIVES AS MODULATORS OF MAS-RELATED G-PROTEIN RECEPTOR D” (ESCIENT PHARMACEUTICALS, INC., priority 2022, published 2026).

The structures appear in SMILES notation.

One may read the IC50 as the concentration that gives 50% inhibition. Higher therefore signals weaker potency.

human MRGPRD, sequence (Q8TDS7 whole entry): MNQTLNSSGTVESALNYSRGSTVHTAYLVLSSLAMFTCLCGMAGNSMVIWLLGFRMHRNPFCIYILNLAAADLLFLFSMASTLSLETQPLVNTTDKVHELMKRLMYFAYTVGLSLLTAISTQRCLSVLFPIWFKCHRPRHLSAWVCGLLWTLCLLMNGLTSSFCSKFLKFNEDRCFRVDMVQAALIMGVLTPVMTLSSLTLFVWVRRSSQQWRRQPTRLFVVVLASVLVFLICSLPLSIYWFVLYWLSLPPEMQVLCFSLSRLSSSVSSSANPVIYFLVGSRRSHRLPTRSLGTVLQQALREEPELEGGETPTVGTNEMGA

The experiment addresses human MRGPRD (Homo sapiens, UniProt Q8TDS7). Briefly: MRGPRD antagonist activity, IP-One HTRF assay in CHO cells stably expressing human MRGPRD (versus 100 μM β-Alanine agonist). It is filed as cell-based. The essentials: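 IP-1 HTRF read-out, with IC50 from HTRF ratio curves and percent antagonism relative to maximal efficacy (mean, SEM). Antagonists and agonist were co-incubated 1 h at 37 °C plus 1 h at room temperature on overnight-plated MRGPRD-CHO cells in LiCl-containing Tris buffer, pH 8.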
On the technique in general: TR-FRET usually uses a lanthanide donor and a delayed reading to cut background.
In the case of `Cc1nn(C)c(C)c1-c1ccc(-n2nnc(C(=O)NC(C)c3cnn(C)c3)c2C2CC2)cc1` (centres unmarked) [Compound 15-4, 5-cyclopropyl-N-(1-(1-methyl-1H-pyrazol-4-yl)ethyl)-1-(4-(1,3,5-trimethyl-1H-pyrazol-4-yl)phenyl)-1H-1,2,3-triazole-4-carboxamide], the IC50 was in the range of 500 to 1000 nM.

`Cn1c(CNC(=O)c2nnn(-c3ccc(-c4ccc(C#N)cc4)cc3)c2C2CC2)nc2ccccc21` [Compound 15-5] gave an IC50 of 500 to 1000 nM.

With `Cn1c(CNC(=O)c2nnn(-c3ccc(-c4ccc(CC#N)cc4)cc3)c2C2CC2)nc2ccccc21` [Compound 15-6], the IC50 is 1000 to 3000 nM.

`CC(NC(=O)c1nnn(-c2ccc(-c3ccc(C#N)c(F)c3)cc2)c1C1CC1)c1ccn(C)n1` (centres unmarked) [Compound 15-7]: the half-maximal inhibitory concentration (IC50) lay within 1000 to 3000 nM.

`CC(NC(=O)c1nnn(-c2ccc(-c3ccc(C#N)cc3)cc2)c1C1CC1)c1cnn(C)c1` (centres unmarked) [Compound 15-8] gave an IC50 of 1000 to 3000 nM.

In turn, `CC(NC(=O)c1nnn(-c2ccc(-c3ccc(CC#N)cc3)cc2)c1C1CC1)c1cnn(C)c1` (centres unmarked) [Compound 15-9] displayed an IC50 of over 3000 nM.

In turn, `CC(NC(=O)c1nnn(-c2ccc(-c3ccc(C#N)cc3)cc2)c1C1CC1)c1ccn(C)n1` (centres unmarked) [Compound 15-10] yielded a half-maximal inhibitory concentration (IC50) of over 3000 nM.

Consider `Cc1ncccc1CNC(=O)c1nnn(-c2ccc(-c3c(C)nn(C)c3C)cc2)c1C1CC1` [Compound 15-11], for which the IC50 lay in the range of 100 to 500 nM.

In turn, `Cc1ccc(CNC(=O)c2nnn(-c3ccc(-c4c(C)nn(C)c4C)cc3)c2C2CC2)cn1` [Compound 15-12] had an IC50 of 100 to 500 nM.

Take `Cc1nn(C)c(C)c1-c1ccc(-n2nnc(C(=O)NC(C)(C)c3cccnc3)c2C2CC2)cc1` [Compound 15-13]: the IC50 fell in the range of 500 to 1000 nM.

`COc1ccc(-c2ccc(-n3nnc(C(=O)Nc4ccnc(C)c4)c3C3CC3)cc2)cn1` [Compound 15-14] had a concentration for half-maximal inhibition (IC50) of 100 to 500 nM.

In the case of `CCn1cc(CNC(=O)c2nnn(-c3ccc(-c4cccc(C#N)c4)cc3)c2C2CC2)cn1` [Compound 15-15], the IC50 is 1000 to 3000 nM.

`Cc1ccc(C2(NC(=O)c3nnn(-c4ccc(-c5c(C)nn(C)c5C)cc4)c3C3CC3)CC2)cn1` [Compound 15-17] came in with an IC50 of 1000 to 3000 nM.

In turn, `CCc1ncccc1C1(NC(=O)c2nnn(-c3ccc(-c4ccc(C#N)cc4)cc3)c2C2CC2)CC1` [Compound 15-18] had an IC50 of 1000 to 3000 nM.

`CCn1cc(CNC(=O)c2nnn(-c3ccc(-c4c(C)nn(C)c4C)cc3)c2C2CC2)cn1` [Compound 15-19] displayed a half-maximal inhibitory concentration (IC50) of 100 to 500 nM.

Regarding `Cc1cc(NC(=O)c2nnn(-c3ccc(-c4ccc(C(F)F)nc4)cc3)c2C2CC2)ccn1` [Compound 15-20], the IC50 was 100 to 500 nM.

`COCc1ccc(-c2ccc(-n3nnc(C(=O)Nc4ccnc(C)c4)c3C3CC3)cc2)cn1` [Compound 15-21] had an IC50 of 500 to 1000 nM.

Turning to `Cc1ccc(CNC(=O)c2nnn(-c3ccc(-c4c(C)nn(-c5ccccc5)c4C)cc3)c2C2CC2)cn1` [Compound 15-22], the IC50 was under 100 nM.

`CCc1ccc(-c2ccc(-n3nnc(C(=O)Nc4ccnc(C)c4)c3C3CC3)cc2)cn1` [Compound 15-23] yielded an IC50 of 100 to 500 nM.

`Cc1cc(NC(=O)c2nnn(-c3ccc(-c4ccc(CC#N)nc4)cc3)c2C2CC2)ccn1` [Compound 15-24] returned an IC50 of 100 to 500 nM.

Compound `Cc1ncccc1CNC(=O)c1nnn(-c2ccc(-c3ccc(C#N)c(F)c3)cc2)c1C1CC1` [Compound 16-1, 1-(4′-cyano-3′-fluoro-[1,1′-biphenyl]-4-yl)-5-cyclopropyl-N-((2-methylpyridin-3-yl)methyl)-1H-1,2,3-triazole-4-carboxamide] came in with an IC50 of under 100 nM.

With `Cc1ncccc1CNC(=O)c1nnn(-c2ccc(-c3ccc(CC#N)cc3)cc2)c1C1CC1` [Compound 16-2], the IC50 was 100 to 500 nM.

The compound `Cc1ncccc1CNC(=O)c1nnn(-c2ccc(-c3cccc(CC#N)c3)cc2)c1C1CC1` [Compound 16-3] came in with an IC50 of 100 to 500 nM.

Consider `CCn1cc(CNC(=O)c2nnn(-c3ccc(-c4ccc(C#N)c(F)c4)cc3)c2C2CC2)cn1` [Compound 16-4], for which the IC50 lay within 100 to 500 nM.

`CCn1cc(CNC(=O)c2nnn(-c3ccc(-c4cccc(CC#N)c4)cc3)c2C2CC2)cn1` [Compound 16-5]: the IC50 is 100 to 500 nM.

In turn, `Cc1ccc(CNC(=O)c2nnn(-c3ccc(-c4c(C)nn5ccccc45)cc3)c2C2CC2)cn1` [Compound 17-1] gave an IC50 of 100 to 500 nM.

`Cc1cc(NC(=O)c2nnn(-c3ccc(-c4ccc(F)nc4)cc3)c2C2CC2)ccn1` [Compound 17-2] displayed an IC50 of 100 to 500 nM.

As for `Cc1ccc(CNC(=O)c2nnn(-c3ccc(-c4ccc(C#N)c(F)c4)cc3)c2C2CC2)cn1` [Compound 17-3, 1-(4′-cyano-3′-fluoro-[1,1′-biphenyl]-4-yl)-5-cyclopropyl-N-((6-methylpyridin-3-yl)methyl)-1H-1,2,3-triazole-4-carboxamide], the IC50 is 100 to 500 nM.

The compound `CCn1cc(CNC(=O)c2nnn(-c3ccc(-c4ccc(C#N)cc4)cc3)c2C2CC2)cn1` [Compound 17-4] displayed an IC50 of 100 to 500 nM.

For the compound `CCn1cc(CNC(=O)c2nnn(-c3ccc(-c4ccc(CC#N)cc4)cc3)c2C2CC2)cn1` [Compound 17-5], the IC50 fell in the range of 100 to 500 nM.

Regarding `COc1ccc(C2(NC(=O)c3nnn(-c4ccc(-c5ccc(C#N)cc5)cc4)c3C3CC3)CC2)cn1` [Compound 17-6], the 50% inhibitory concentration (IC50) fell in the range of 100 to 500 nM.

As to `CCn1cc(CNC(=O)c2nnn(-c3ccc(-c4ccc(F)cc4)cc3)c2C2CC2)cn1` [Compound 17-7], the IC50 lay in the range of 1000 to 3000 nM.

In turn, `CCn1cc(CNC(=O)c2nnn(-c3ccc(-c4ccc(C(N)=O)cc4)cc3)c2C2CC2)cn1` [Compound 17-8] had an IC50 of 1000 to 3000 nM.

The compound `Cc1ccc(-c2ccc(-n3nnc(C(=O)Nc4ccnc(C)c4)c3C3CC3)cc2)cn1` [Compound 17-9] had an IC50 of 100 to 500 nM.

The compound `Cc1nn(C)c(C)c1-c1ccc(-n2nnc(C(=O)Nc3ccncc3)c2C(C)C)cc1` [Compound 17-10] had an IC50 of under 100 nM.

The compound `CCn1cc(CNC(=O)c2nnn(-c3ccc(-c4c(C)nn(C)c4C)cc3)c2C(C)C)cn1` [Compound 17-11] yielded an IC50 of under 100 nM.

Regarding `COc1cc(-c2ccc(C#N)cc2)ccc1-n1nnc(C(=O)Nc2ccnc(C)c2)c1C(C)C` [Compound 17-12], the IC50 was 100 to 500 nM.

Regarding `CCn1cc(CNC(=O)c2nnn(-c3ccc(-c4ccccc4)cc3)c2C(C)C)cn1` [Compound 17-13], the half-inhibitory concentration (IC50) was 100 to 500 nM.

`Cc1cc(NC(=O)c2nnn(-c3ccc(-c4ccc(C#N)cc4)cc3F)c2C(C)C)ccn1` [Compound 17-14] yielded an IC50 of 100 to 500 nM.

Turning to `Cc1cc(NC(=O)c2nnn(-c3ccc(-c4ccc(C#N)cc4)cn3)c2C(C)C)ccn1` [Compound 17-15], the IC50 fell in the range of 100 to 500 nM.

For the compound `Cc1nn(C)c(C)c1-c1ccc(-n2nnc(C(=O)Nc3ccccc3)c2C(C)C)cc1` [Compound 17-16], the IC50 was in the range of 100 to 500 nM.

`CCn1cc(CNC(=O)c2nnn(-c3ccc(-c4ccc(C#N)cc4)cc3)c2C(C)C)cn1` [Compound 17-17] had an IC50 of 100 to 500 nM.

As for `Cc1nn(C)c(C)c1-c1ccc(-n2nnc(C(=O)Nc3cccc(C#N)c3)c2C(C)C)cc1` [Compound 17-18], the IC50 is 100 to 500 nM.

In turn, `CCn1cc(CNC(=O)c2nnn(-c3ccc(-c4ccc(C#N)cc4)cc3F)c2C(C)C)cn1` [Compound 17-19] registered an IC50 of 100 to 500 nM.

With `CCn1cc(CNC(=O)c2nnn(-c3ccc(-c4ccc(C#N)cc4)cn3)c2C(C)C)cn1` [Compound 17-20], the IC50 was 100 to 500 nM.

As for `CCn1cc(CNC(=O)c2nnn(-c3ccc(-c4ccc(C#N)cc4)cc3OC)c2C(C)C)cn1` [Compound 17-21], the IC50 lay in the range of 100 to 500 nM.

`Cc1nn(C)c(C)c1-c1ccc(-n2nnc(C(=O)NCc3cccnc3)c2C(C)C)cc1` [Compound 17-22] yielded an IC50 of 100 to 500 nM.

The compound `CCn1cc(C2(NC(=O)c3nnn(-c4ccc(-c5ccc(C#N)c(F)c5)cc4)c3C(C)C)CC2)cn1` [Compound 17-23] came in with an IC50 of 100 to 500 nM.

Take `Cc1nn(C)c(C)c1-c1ccc(-n2nnc(C(=O)NC3C(C)(C)C3(C)C)c2C(C)C)cc1` [Compound 17-24]: the IC50 lay in the range of 100 to 500 nM.

`Cc1nn(C)c(C)c1-c1ccc(-n2nnc(C(=O)Nc3ccccn3)c2C(C)C)cc1` [Compound 17-25] gave an IC50 of 100 to 500 nM.

`CCn1cc(CNC(=O)c2nnn(-c3ccc(-c4ccc(C#N)cc4)cc3)c2C2CCC2)cn1` [Compound 17-26] had an IC50 of 500 to 1000 nM.

`CC(C)c1c(C(=O)Nc2ccncc2)nnn1-c1ccc(-c2cnn(C)c2)cc1` [Compound 17-27]: the IC50 fell in the range of 500 to 1000 nM.

On to `Cc1cc(NC(=O)c2nnn(-c3ccc(-c4ccc(C#N)cc4)cc3)c2C(C)C)ccn1` [Compound 17-28], for which the IC50 was 500 to 1000 nM.

As to `Cc1nn(C)c(C)c1-c1ccc(-n2nnc(C(=O)Nc3cccnc3)c2C(C)C)cc1` [Compound 17-29], the IC50 lay in the range of 500 to 1000 nM.

Consider `CC(C)c1c(C(=O)Nc2cccc(C#N)c2)nnn1-c1ccc(-c2cnn(C)c2)cc1` [Compound 17-30], for which the IC50 is 500 to 1000 nM.

Regarding `Cc1cc(NC(=O)c2nnn(-c3ccc(-c4ccccc4)cc3)c2C(C)C)ccn1` [Compound 17-31], the IC50 was in the range of 1000 to 3000 nM.

On to `CC(C)c1c(C(=O)NC2(c3cccnc3)CC2)nnn1-c1ccc(-c2ccc(C#N)cc2)cc1` [Compound 17-32], for which the IC50 was 1000 to 3000 nM.

On to `Cc1ccc(CNC(=O)c2nnn(-c3ccc(-c4ccc(C#N)nc4)cc3)c2C(C)C)cn1` [Compound 17-33], for which the IC50 is 1000 to 3000 nM.

Turning to `Cc1nn(C)c(C)c1-c1ccc(-n2nnc(C(=O)NC3CC3)c2C(C)C)cc1` [Compound 17-34], the IC50 was over 3000 nM.

Compound `N#Cc1ccc(-c2ccc(-n3nnc(C(=O)NC4(c5cncc(Cl)c5)CC4)c3C3CC3)cc2)cc1` [Compound 18-1] gave an IC50 of 100 to 500 nM.

In turn, `CCc1ccc(C2(NC(=O)c3nnn(-c4ccc(-c5ccc(C#N)cc5)cc4)c3C3CC3)CC2)cn1` [Compound 18-2] returned an IC50 of 100 to 500 nM.

For `N#Cc1ccc(-c2ccc(-n3nnc(C(=O)NC4(c5cccnc5)CC4)c3C3CC3)cc2)cc1` [Compound 18-3, 1-(4′-cyano-[1,1′-biphenyl]-4-yl)-5-cyclopropyl-N-(1-(pyridin-3-yl)cyclopropyl)-1H-1,2,3-triazole-4-carboxamide], the IC50 lay within 500 to 1000 nM.
